Results from patent US5817692A, “Endoperoxides useful as antiparasitic agents” (priority 1996, dated 1998).
pIC50: −log10 of the molar value. Read-outs that look alike come from different tables or passages of the source.

What was measured:
Assay type in all cases: cell-based
L929 cells = assay: cytotoxicity to L929 cells, MTT assay (viability and replication); parameters: Toxicity, Mean: unit not given here; settings: L929 cells; for Toxicity, Mean: MTT; for inhibition at 0.1 µM / inhibition at 1 µM / inhibition at 10 µM / inhibition at 50 µM: Mus musculus, read-out: Toxicity, % of control (inhibition)
Procedure: Toxoplasma gondii is the causative agent of cerebral toxoplasmic encephalitis, an AIDS-related opportunistic infection. The biological activity of the endoperoxide JHU 2886 of the present invention was measured against Toxoplasma gondii cultured in L929 cells.
More specifically, the cytotoxicity of synthetic organic endoperoxide JHU 2886 was tested in L929 cells by measuring the viability and replication of exposed cells. The cytotoxicity of the compound to the cultured cells was measured using the MTT assay (Promega kit), according to the procedure of Carmichael et al. (18). MTT is an abbreviation for [3-(4,5-dimethylthiazol-2-yl)-2,5-dephenyltetrazolium bromide].
This compound is referred to as JHU 2886 in Table 1. In this experiment atovaquone and artemisinin were used as positive controls. Atovaquone is a broad-spectrum anti-infective drug having antimalarial and antitoxoplasmosis activity (19).
^1 The cytotoxicity of each compound for the cultured cells was
measured using the MTT assay (Promega kit) and inhibition of the […]

Toxoplasma gondii = assay: inhibition of intracellular replication of T. gondii in infected L929 cells, uracil incorporation assay; parameters: Activity, Mean: unit not given here; settings: for Activity, Mean: uracil incorporation; for inhibition at 0.1 µM / inhibition at 1 µM / inhibition at 10 µM / inhibition at 50 µM: Toxoplasma gondii, L929, read-out: Activity, % of control (inhibition)
Procedure: Toxoplasma gondii is the causative agent of cerebral toxoplasmic encephalitis, an AIDS-related opportunistic infection. The biological activity of the endoperoxide JHU 2886 of the present invention was measured against Toxoplasma gondii cultured in L929 cells. The inhibitory activity of the synthetic organic endoperoxide was tested by measuring the intracellular replication of T. gondii in infected L929 cells. The inhibition of the intracellular replication of T. gondii was determined using the uracil incorporation assay (20). […] This compound is referred to as JHU 2886 in Table 1. In this experiment atovaquone and artemisinin were used as positive controls. Atovaquone is a broad-spectrum anti-infective drug having antimalarial and antitoxoplasmosis activity (19). | measured using the MTT assay (Promega kit) and inhibition of the | intracellular replication of T. gondii was determined using the uracil | incorporation assay.

P. falciparum NF54 = assay: antimalarial activity, P. falciparum NF54 parasites in vitro; settings: Plasmodium falciparum; P. falciparum NF54 parasites in vitro; read-out: Antimalarial Activity IC50
Procedure: (§1) The protozoan Plasmodium falciparum is a causative agent of malaria, the single most critical infectious disease of mankind. The antimalarial activity of the endoperoxides was determined according to the method of Desjardins et al. (16) as modified by Milhous et al. (17). Briefly, the antimalarial activity of the endoperoxides was tested in a tritiated-hypoxanthine incorporation assay by determining the concentration of the test compound needed to inhibit 50% of the replication of Plasmodium falciparum (IC50) in human red blood cells.
Tables 4 and 5 show the structures and antimalarial activities of unsaturated and saturated bicyclic [2.2.2] endoperoxides of the invention. Compounds of this formula wherein R and R' are identical are particularly preferred. It is expected that compounds wherein R and R' are selected from the groups [drawing 33] will be especially useful. […]

Plasmodium falciparum = assay: antimalarial activity, tritiated-hypoxanthine incorporation assay in human red blood cells; settings: Erythrocyte, read-out: IC50 (inhibition of 50% of the replication of Plasmodium falciparum)
Procedure: as §1
It is particularly noted that JHU 2886 has an excellent therapeutic index (ratio of activity to toxicity). At 1 μM, JHU 2886 has a therapeutic index of 70/0, whereas at the same concentration artimisinin has a therapeutic index of 76/10 (7.6), and atovaquone has a therapeutic index of only 95/17 (5.6). […] The first two compounds are known while the following five are being disclosed for the first time. […] Compounds of this formula wherein Ar is p-FCH2 Ph or p-HOCH2 Ph and X is CH2 are also expected to be particularly useful. […]

C[C@@H]1CC[C@H]2[C@@H](C)C(=O)O[C@@H]3O[C@@]4(C)CC[C@@H]1[C@]32OO4 [Artemisinin]
Toxicity, Score (L929 cells; 24 hours, dose 0.1 μM): 1 (≤20%)
Toxicity, Mean (L929 cells; 24 hours, dose 0.1 μM): 0.103
Toxicity, Score (L929 cells; 24 hours, dose 1.0 μM): 1 (≤20%)
Toxicity, Mean (L929 cells; 24 hours, dose 1.0 μM): 0.101
Toxicity, Score (L929 cells; 24 hours, dose 10.0 μM): 1 (≤20%)
Toxicity, Mean (L929 cells; 24 hours, dose 10.0 μM): 0.104
Toxicity, Score (L929 cells; 24 hours, dose 50.0 μM): 1 (≤20%)
Toxicity, Mean (L929 cells; 24 hours, dose 50.0 μM): 0.110
Toxicity, Mean (L929 cells; 48 hours, dose 0.1 μM): 0.213
Toxicity, Score (L929 cells; 48 hours, dose 1.0 μM): 1 (≤20%)
Toxicity, Mean (L929 cells; 48 hours, dose 1.0 μM): 0.205
Toxicity, Score (L929 cells; 48 hours, dose 10.0 μM): 1 (≤20%)
Toxicity, Mean (L929 cells; 48 hours, dose 10.0 μM): 0.195
Toxicity, Score (L929 cells; 48 hours, dose 50.0 μM): 1 (≤20%)
Toxicity, Mean (L929 cells; 48 hours, dose 50.0 μM): 0.193
Toxicity, Mean (L929 cells; 72 hours, dose 0.1 μM): 0.460
Toxicity, Score (L929 cells; 72 hours, dose 1.0 μM): 1 (≤20%)
Toxicity, Mean (L929 cells; 72 hours, dose 1.0 μM): 0.394
Toxicity, Score (L929 cells; 72 hours, dose 10.0 μM): 1 (≤20%)
Toxicity, Mean (L929 cells; 72 hours, dose 10.0 μM): 0.354
Toxicity, Score (L929 cells; 72 hours, dose 50.0 μM): 2 (>20%-≤40%)
Toxicity, Mean (L929 cells; 72 hours, dose 50.0 μM): 0.348
inhibition at 0.1 µM (L929 cells; 24 hours, dose 0.1 μM): 8.56%
inhibition at 1 µM (L929 cells; 24 hours, dose 1.0 μM): 10.3%
inhibition at 10 µM (L929 cells; 24 hours, dose 10.0 μM): 7.67%
inhibition at 50 µM (L929 cells; 24 hours, dose 50.0 μM): 2.36%
inhibition at 0.1 µM (L929 cells; 48 hours, dose 0.1 μM): 0%
inhibition at 1 µM (L929 cells; 48 hours, dose 1.0 μM): 3.75%
inhibition at 10 µM (L929 cells; 48 hours, dose 10.0 μM): 8.44%
inhibition at 50 µM (L929 cells; 48 hours, dose 50.0 μM): 9.53%
inhibition at 0.1 µM (L929 cells; 72 hours, dose 0.1 μM): 0%
inhibition at 1 µM (L929 cells; 72 hours, dose 1.0 μM): 9.97%
inhibition at 10 µM (L929 cells; 72 hours, dose 10.0 μM): 19.2%
inhibition at 50 µM (L929 cells; 72 hours, dose 50.0 μM): 20.6%
therapeutic index (ratio of activity to toxicity), quotient (Toxoplasma gondii; 1 μM, T. gondii activity / L929 toxicity): 7.6
Activity, Score (Toxoplasma gondii; 24 hours, dose 0.1 μM): 2 (>20%-≤40%)
Activity, Mean (Toxoplasma gondii; 24 hours, dose 0.1 μM): 10106
Activity, Score (Toxoplasma gondii; 24 hours, dose 1.0 μM): 4 (>70%-≤90%)
Activity, Mean (Toxoplasma gondii; 24 hours, dose 1.0 μM): 3467
Activity, Score (Toxoplasma gondii; 24 hours, dose 10.0 μM): 4 (>70%-≤90%)
Activity, Mean (Toxoplasma gondii; 24 hours, dose 10.0 μM): 3470
Activity, Score (Toxoplasma gondii; 24 hours, dose 50.0 μM): 4 (>70%-≤90%)
Activity, Mean (Toxoplasma gondii; 24 hours, dose 50.0 μM): 33322
Activity, Score (Toxoplasma gondii; 48 hours, dose 0.1 μM): 1 (≤20%)
Activity, Mean (Toxoplasma gondii; 48 hours, dose 0.1 μM): 15440
Activity, Score (Toxoplasma gondii; 48 hours, dose 1.0 μM): 3 (>40%-≤70%)
Activity, Mean (Toxoplasma gondii; 48 hours, dose 1.0 μM): 6101
Activity, Score (Toxoplasma gondii; 48 hours, dose 10.0 μM): 4 (>70%-≤90%)
Activity, Mean (Toxoplasma gondii; 48 hours, dose 10.0 μM): 4225
Activity, Score (Toxoplasma gondii; 48 hours, dose 50.0 μM): 4 (>70%-≤90%)
Activity, Mean (Toxoplasma gondii; 48 hours, dose 50.0 μM): 4167
Activity, Score (Toxoplasma gondii; 72 hours, dose 0.1 μM): 0
Activity, Mean (Toxoplasma gondii; 72 hours, dose 0.1 μM): 8253
Activity, Score (Toxoplasma gondii; 72 hours, dose 1.0 μM): 4 (>70%-≤90%)
Activity, Mean (Toxoplasma gondii; 72 hours, dose 1.0 μM): 1976
Activity, Score (Toxoplasma gondii; 72 hours, dose 10.0 μM): 4 (>70%-≤90%)
Activity, Mean (Toxoplasma gondii; 72 hours, dose 10.0 μM): 783
Activity, Score (Toxoplasma gondii; 72 hours, dose 50.0 μM): 4 (>70%-≤90%)
Activity, Mean (Toxoplasma gondii; 72 hours, dose 50.0 μM): 813
inhibition at 0.1 µM (Toxoplasma gondii; 24 hours, dose 0.1 μM): 29.6%
inhibition at 1 µM (Toxoplasma gondii; 24 hours, dose 1.0 μM): 75.8%
inhibition at 10 µM (Toxoplasma gondii; 24 hours, dose 10.0 μM): 75.8%
inhibition at 50 µM (Toxoplasma gondii; 24 hours, dose 50.0 μM): 76.8%
inhibition at 0.1 µM (Toxoplasma gondii; 48 hours, dose 0.1 μM): 10.4%
inhibition at 1 µM (Toxoplasma gondii; 48 hours, dose 1.0 μM): 64.6%
inhibition at 10 µM (Toxoplasma gondii; 48 hours, dose 10.0 μM): 75.5%
inhibition at 50 µM (Toxoplasma gondii; 48 hours, dose 50.0 μM): 75.8%
inhibition at 0.1 µM (Toxoplasma gondii; 72 hours, dose 0.1 μM): -14.1%
inhibition at 1 µM (Toxoplasma gondii; 72 hours, dose 1.0 μM): 72.7%
inhibition at 10 µM (Toxoplasma gondii; 72 hours, dose 10.0 μM): 89.2%
inhibition at 50 µM (Toxoplasma gondii; 72 hours, dose 50.0 μM): 88.8%
pIC50 (P. falciparum NF54): 7.96
pIC50 (Plasmodium falciparum): 7.96
